Experimental data reported in US9388147B2 (Receptos, Inc., priority 2009, dated 2016).

Each compound was assayed against S1P1/EDG1 (Homo sapiens, UniProt P21453) (assay: S1P1 CRE-bla CHOK1 reporter assay, inhibition of Forskolin induced cAMP). Details: agonist activity range, S1P1 CRE-bla CHOK1, 2 μM Forskolin; read-out: S1P1 ACTIVITY.
Chain of S1P1/EDG1 (P21453 whole entry): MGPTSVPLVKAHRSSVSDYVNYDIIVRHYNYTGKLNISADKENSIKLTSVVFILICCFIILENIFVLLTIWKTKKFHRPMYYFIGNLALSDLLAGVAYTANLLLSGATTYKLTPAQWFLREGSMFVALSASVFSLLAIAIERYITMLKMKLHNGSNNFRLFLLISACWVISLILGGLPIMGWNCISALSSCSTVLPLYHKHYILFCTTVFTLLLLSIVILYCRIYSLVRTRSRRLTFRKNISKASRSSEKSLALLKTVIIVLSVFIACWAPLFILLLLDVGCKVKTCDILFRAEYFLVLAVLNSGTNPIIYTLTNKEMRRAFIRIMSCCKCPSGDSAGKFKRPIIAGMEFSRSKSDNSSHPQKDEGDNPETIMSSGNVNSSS
Type: cell-based
Method in brief: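 Read-out is a FRET β-lactamase substrate (2 h, room temperature) after 4 h, 37 °C compound treatment under 2 μM Forskolin in stable S1P1-transfected CRE-bla CHO-K1 cells. Ten-point curves; non-linear regression gives EC50 for inhibition of Forskolin-stimulated cAMP.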
For CC(C)Oc1ccc(-c2nc(-c3cccc4c3CC[C@@H]4N3CC(C(=O)N(C)C)C3)no2)cc1C#N [Compound 205], the EC50 was 0.05 to 0.5 nM. With CC(C)Oc1ccc(-c2nc(-c3cccc4c3CC[C@H]4NS(=O)(=O)CC(=O)N3CCOCC3)no2)cc1C#N [Compound 192] the EC50 was < 0.05 nM. CC(C)Oc1ccc(-c2nc(-c3cccc4c3CCC4N3CC[C@@H](O)C3)no2)cc1C#N (mixture of isomers) [Compound 33] was tested, and the EC50 was 0.5 to 5 nM. In the case of CCS(=O)(=O)N[C@H]1CCc2c(-c3noc(-c4ccc(OC(C)C)c(C#N)c4)n3)cccc21 [Compound 73], the EC50 is reported as 0.5 to 5 nM. In the case of CC(C)Oc1ccc(-c2nc(-c3cccc4c3CC[C@H]4N3CC(O)C3)no2)cc1C#N [Compound 83, (R)-5-(3-(1-(3-hydroxyazetidin-1-yl)-2,3-dihydro-1H-inden-4-yl)-1,2,4-oxadiazol-5-yl)-2-isopropoxybenzonitrile], the EC50 is reported as 0.05 to 0.5 nM. With CC(C)Oc1ccc(-c2nc(-c3cccc4c3CC[C@@H]4NCC(=O)N(C)C)no2)cc1C(N)=O [Compound 121] the EC50 was > 5 nM. Work on CNS(=O)(=O)CCNC1CCc2c(-c3noc(-c4ccc(OC(C)C)c(C#N)c4)n3)cccc21 (racemic) [Compound 45, 2-((4-(5-(3-cyano-4-isopropoxyphenyl)-1,2,4-oxadiazol-3-yl)-2,3-dihydro-1H-inden-1-yl)amino)-N-methylethanesulfonamide] yielded an EC50 of 0.05 to 0.5 nM. N#Cc1cc(OC(F)(F)F)cc(-c2nc(-c3cccc4c3CC[C@H]4N)no2)c1 [Compound 93, (R)-3-(3-(1-amino-2,3-dihydro-1H-inden-4-yl)-1,2,4-oxadiazol-5-yl)-5-(trifluoromethoxy)benzonitrile] was tested, and the EC50 was > 5 nM. For CC(C)Oc1ccc(-c2nc(-c3cccc4c3CC[C@H]4NS(=O)(=O)CCN3CCCCC3)no2)cc1C#N [Compound 175], the EC50 was 0.5 to 5 nM. For CC(C)Oc1ccc(-c2nc(-c3cccc4c3CC[C@H]4NS(=O)(=O)CCCO)no2)cc1C#N [Compound 188], the EC50 was < 0.05 nM. In the case of CC(C)Oc1ccc(-c2nc(-c3cccc4c3CC[C@H]4NC(=O)N3CCOCC3)no2)cc1C#N [Compound 211], the EC50 is reported as 0.05 to 0.5 nM. CC(C)Oc1ccc(-c2nc(-c3cccc4c3CC[C@@H]4NCc3nc4ccccc4[nH]3)no2)cc1C#N [Compound 160] gave an EC50 of 0.5 to 5 nM. Cc1c[nH]c(CN[C@H]2CCc3c(-c4noc(-c5ccc(OC(C)C)c(C#N)c5)n4)cccc32)n1 [Compound 159] showed an EC50 of 0.5 to 5 nM. Compound CC(C)CS(=O)(=O)N[C@@H]1CCc2c(-c3noc(-c4ccc(OC(C)C)c(C#N)c4)n3)cccc21 [Compound 76] has an EC50 of 0.5 to 5 nM. CC(C)Oc1ccc(-c2nc(-c3cccc4c3CC[C@@H]4N(C)CCO)no2)cc1C#N [Compound 209] showed an EC50 of 0.05 to 0.5 nM. CC(C)Oc1ccc(-c2nc(-c3cccc4c3CC[C@H]4NS(=O)(=O)CC(N)=O)no2)cc1C#N [Compound 197] was tested, and the EC50 was < 0.05 nM. CN[C@H]1CCc2c(-c3noc(-c4ccc(OC(C)C)c(C#N)c4)n3)cccc21 [Compound 105] was tested, and the EC50 was 0.05 to 0.5 nM. With COCC(=O)NC1CCc2c(-c3noc(-c4ccc(OC(C)C)c(C#N)c4)n3)cccc21 (racemic) [Compound 39] the EC50 was 0.05 to 0.5 nM. CC(C)Oc1ccc(-c2nc(-c3cccc4c3CC[C@H]4NCC(F)F)no2)cc1C#N [Compound 140] was tested, and the EC50 was 0.5 to 5 nM. With CC(C)Oc1ccc(-c2nc(-c3cccc4c3CC[C@H]4N[C@H](C)c3ccccc3)no2)cc1C#N [Compound 251] the EC50 was > 5 nM. For CC(C)Oc1ccc(-c2nc(-c3cccc4c3CC[C@@H]4NC(=O)CN(C)C)no2)cc1C#N [Compound 136], the EC50 was 0.05 to 0.5 nM. CC(C)Oc1ccc(-c2nc(-c3cccc4c3CC[C@H]4NC(=O)CN3CCCC3)no2)cc1C#N [Compound 68] was tested, and the EC50 was 0.5 to 5 nM. CC(C)Oc1ccc(-c2nc(-c3cccc4c3CC[C@@H]4NC(=N)N)no2)cc1C#N [Compound 250] gave an EC50 of 0.05 to 0.5 nM. For CC(C)Oc1ccc(-c2nc(-c3cccc4c3CC[C@@H]4NS(=O)(=O)CC(N)=O)no2)cc1C#N [Compound 196], the EC50 was < 0.05 nM. Compound CC(C)Oc1ccc(-c2nc(-c3cccc4c3CC[C@H]4N[C@@H](C)CO)no2)cc1C#N [Compound 54, 5-(3-((R)-1-(((S)-1-hydroxypropan-2-yl)amino)-2,3-dihydro-1H-inden-4-yl)-1,2,4-oxadiazol-5-yl)-2-isopropoxybenzonitrile] has an EC50 of 0.05 to 0.5 nM. For CCOc1ccc(-c2nc(-c3cccc4c3CC[C@H]4O)no2)cc1C(F)(F)F [Compound 9], the EC50 was 0.5 to 5 nM. Work on CC(C)Oc1ccc(-c2nc(-c3cccc4c3CC[C@@H]4NS(=O)(=O)CCN3CCOCC3)no2)cc1C#N [Compound 177] yielded an EC50 of 0.5 to 5 nM. COC(=O)CC1CCN(C(=O)N[C@@H]2CCc3c(-c4noc(-c5ccc(OC(C)C)c(C#N)c5)n4)cccc32)CC1 [Compound 225] gave an EC50 of 0.5 to 5 nM. For CC(C)Oc1ccc(-c2nc(-c3cccc4c3CC[C@@H]4NS(=O)(=O)CC(=O)N3CCC3)no2)cc1C#N [Compound 200], the EC50 was < 0.05 nM. CC(C)Oc1ccc(-c2nc(-c3cccc4c3CC[C@@H]4N[C@@H](C)CO)no2)cc1C#N [Compound 53, 5-(3-((S)-1-(((S)-1-hydroxypropan-2-yl)amino)-2,3-dihydro-1H-inden-4-yl)-1,2,4-oxadiazol-5-yl)-2-isopropoxybenzonitrile] gave an EC50 of 0.5 to 5 nM. CC(C)Oc1ccc(-c2nc(-c3cccc4c3CC[C@H]4N[C@H](C)C(=O)O)no2)cc1C#N [Compound 63] was tested, and the EC50 was < 0.05 nM. With COC(=O)CCNC1CCc2c(-c3noc(-c4ccc(OC(C)C)c(C#N)c4)n3)cccc21 (racemic) [Compound 35] the EC50 was 0.05 to 0.5 nM. With CCN(CC(=O)N(C)C)[C@@H]1CCc2c(-c3noc(-c4ccc(OC(C)C)c(C#N)c4)n3)cccc21 [Compound 116] the EC50 was 0.5 to 5 nM. CC(C)Oc1ccc(-c2nc(-c3cccc4c3CC[C@H]4NCC(=O)N3CCCCC3)no2)cc1C#N [Compound 130] was tested, and the EC50 was 0.5 to 5 nM. CC(C)Oc1ccc(-c2nc(-c3cccc4c3CC[C@H]4N3CC(C(=O)N(C)C)C3)no2)cc1C#N [Compound 204] showed an EC50 of 0.05 to 0.5 nM. With CC(C)Oc1ccc(-c2nc(-c3cccc4c3CC[C@@H]4NS(C)(=O)=O)no2)cc1C#N [Compound 69, (S)-N-(4-(5-(3 cyano-4-isopropoxyphenyl)-1,2,4-oxadiazol-3-yl)-2,3-dihydro-1H-inden-1-yl)methanesulfonamide] the EC50 was < 0.05 nM. CC(C)Oc1ccc(-c2nc(-c3cccc4c3CC[C@H]4NS(=O)(=O)CCN3CC[C@H](O)C3)no2)cc1C#N [Compound 172] showed an EC50 of 0.5 to 5 nM. With CC(C)Oc1ccc(-c2nc(-c3cccc4c3CCC4N[C@@H](C)c3ccccc3)no2)cc1C#N (stereo in doubt) [Compound 123] the EC50 was > 5 nM. CCOc1ccc(-c2nc(-c3cccc4c3CC[C@H]4O)no2)cc1C#N [Compound 3] gave an EC50 of 0.05 to 0.5 nM. CNC(=O)CN[C@@H]1CCc2c(-c3noc(-c4ccc(OC(C)C)c(C#N)c4)n3)cccc21 [Compound 52] gave an EC50 of 0.05 to 0.5 nM. Compound CC(=O)N(CCO)[C@@H]1CCc2c(-c3noc(-c4ccc(OC(C)C)c(C#N)c4)n3)cccc21 [Compound 113] has an EC50 of 0.5 to 5 nM. CC(C)Oc1ccc(-c2nc(-c3cccc4c3CCC4N3CCNCC3)no2)cc1C#N (racemic) [Compound 47] gave an EC50 of 0.05 to 0.5 nM. CC(C)Oc1ccc(-c2nc(-c3cccc4c3CCC4NCCN)no2)cc1C#N (racemic) [Compound 29] gave an EC50 of 0.05 to 0.5 nM. For CC(C)Oc1ccc(-c2nc(-c3cccc4c3CC[C@@H]4NC(=O)N3CC[C@@H](N(C)C)C3)no2)cc1C#N [Compound 244], the EC50 was 0.5 to 5 nM. CC(C)Oc1ccc(-c2nc(-c3cccc4c3CC[C@H]4N(C)CC(=O)N(C)C)no2)cc1C#N [Compound 115] showed an EC50 of 0.5 to 5 nM.
